Test results taken from US12016833B2 (ACEBiomed, Inc., priority 2020, dated 2024).
Like-named read-outs stand apart in the source and are kept apart here.

Columns and labels:
obesity-induced rats [1] = experiment: Anatomical test of liver cross-sections by H&E staining; assay type: in vivo; settings: HFD rats; colchicine 100 μg/kg alone or with metformin 100 mg/kg; FIG. 4
From the text: For the anatomical test of the cross-sections of the livers of the rats, H&E staining was applied, and the results were shown in FIG. 4.

obesity-induced rats [2] = experiment: Fat accumulated in liver tissue, oil red O staining; assay type: in vivo; settings: HFD rats; FIG. 5
From the text: In addition, in order to examine a quantitative change of fat accumulated in the liver tissues of the rats, the fat was confirmed by staining using an oil red O method, and the results were shown in FIG. 5.

[3] = HFD rats; colchicine (10 μg/kg) alone or colchicine (10 μg/kg)/metformin (50 mg/kg), oral gavage 3 times a week, 6 weeks; FIG. 2
Method: (§1) The drugs were administered with a high fat diet for a total of 6 weeks, and administered by oral gavage 3 times a week.

obesity-induced rats [4] = settings: HFD rats
Method: as §1

AMPK [5] = settings: HFD rats; colchicine 100 μg/kg alone or with metformin 100 mg/kg; FIG. 6
Method: as §1

ACC [6] = settings: HFD rats; colchicine 100 μg/kg alone or with metformin 100 mg/kg; FIG. 6
Method: as §1

AMPK [7] = settings: drug treatment for 7 hours; FIG. 7
ACC [8] = settings: rat AML12 liver cell line; drug treatment for 7 hours; FIG. 7
obesity-induced rats [9] = settings: HFD rats; remark: listed apart in the source
Method: as §1

obesity-induced rats [10] = settings: HFD rats; remark: listed apart in the source
Method: as §1

[11] = colchicine 10 μg/kg alone, Table 1
[12] = colchicine 50 μg/kg alone, Table 1
[13] = colchicine 100 μg/kg alone, Table 1
[14] = colchicine 100 μg/kg alone, Table 2
[15] = colchicine 200 μg/kg alone, Table 1
[16] = colchicine 10 μg/kg alone, Table 3
[17] = colchicine 50 μg/kg alone, Table 3
[18] = colchicine 100 μg/kg alone, Table 3
[19] = colchicine 100 μg/kg alone, Table 4
[20] = colchicine 200 μg/kg alone, Table 3

Structure (SMILES): COc1cc2c(c(OC)c1OC)-c1ccc(OC)c(=O)cc1[C@@H](NC(C)=O)CC2 [Colchicine]
- steatosis in the liver tissues (H&E staining) (obesity-induced rats [1]): reduced
- fat accumulation in the liver tissues (oil red O) (obesity-induced rats [2]): reduced
- change in weights of the whole rats [3]: no significant change
- Ballooning degeneration (obesity-induced rats [4]; FIG. 3): reduced
- Portal inflammation (obesity-induced rats [4]; FIG. 3): reduced
- macrovesicular steatosis (obesity-induced rats [4]; FIG. 3): no effect
- microvesicular steatosis (obesity-induced rats [4]; FIG. 3): reduced
- Ballooning degeneration (obesity-induced rats [4]; [11]): 2
- Fatty necrosis (obesity-induced rats [4]; [11]): 3
- Fibrosis (obesity-induced rats [4]; [11]): 3
- Portal inflammation (obesity-induced rats [4]; [11]): 2
- Total score (obesity-induced rats [4]; [11]): 10
- Ballooning degeneration (obesity-induced rats [4]; [12]): 2
- Fatty necrosis (obesity-induced rats [4]; [12]): 2
- Fibrosis (obesity-induced rats [4]; [12]): 2
- Portal inflammation (obesity-induced rats [4]; [12]): 2
- Total score (obesity-induced rats [4]; [12]): 8
- Ballooning degeneration (obesity-induced rats [4]; [13]): 1
- Fatty necrosis (obesity-induced rats [4]; [13]): 2
- Fibrosis (obesity-induced rats [4]; [13]): 1
- Portal inflammation (obesity-induced rats [4]; [13]): 1
- Total score (obesity-induced rats [4]; [13]): 5
- Ballooning degeneration (obesity-induced rats [4]; [14]): 1
- Fatty necrosis (obesity-induced rats [4]; [14]): 2
- Fibrosis (obesity-induced rats [4]; [14]): 1
- Portal inflammation (obesity-induced rats [4]; [14]): 2
- Total score (obesity-induced rats [4]; [14]): 6
- Ballooning degeneration (obesity-induced rats [4]; [15]): 2
- Fatty necrosis (obesity-induced rats [4]; [15]): 2
- Fibrosis (obesity-induced rats [4]; [15]): 1
- Portal inflammation (obesity-induced rats [4]; [15]): 2
- Total score (obesity-induced rats [4]; [15]): 7
- activation of AMPK in liver tissues (AMPK [5]): partially recovered
- activation of ACC in liver tissues (ACC [6]): partially recovered
- activation of AMPK (AMPK [7]): increased
- activation of ACC (ACC [8]): increased
- ALT (obesity-induced rats [9]; [16]): 1742.57 ± 102.71 U/L
- AST (obesity-induced rats [9]; [16]): 1766.90 ± 90.48 U/L
- Total protein (obesity-induced rats [9]; [16]): 5.07 ± 0.30 g/dL
- ALT (obesity-induced rats [9]; [17]): 1602.38 ± 61.31 U/L
- AST (obesity-induced rats [9]; [17]): 1759.49 ± 61.71 U/L
- Total protein (obesity-induced rats [9]; [17]): 5.21 ± 0.33 g/dL
- ALT (obesity-induced rats [9]; [18]): 1466.48 ± 49.34 U/L
- AST (obesity-induced rats [9]; [18]): 1614.70 ± 78.28 U/L
- Total protein (obesity-induced rats [9]; [18]): 5.24 ± 0.13 g/dL
- ALT (obesity-induced rats [9]; [19]): 1508.64 ± 102.38 U/L
- AST (obesity-induced rats [9]; [19]): 1574.22 ± 75.98 U/L
- Total protein (obesity-induced rats [9]; [19]): 5.13 ± 0.22 g/dL
- ALT (obesity-induced rats [9]; [20]): 1735.40 ± 86.49 U/L
- AST (obesity-induced rats [9]; [20]): 1833.70 ± 131.74 U/L
- Total protein (obesity-induced rats [9]; [20]): 5.09 ± 0.32 g/dL
- Hydroxyproline (obesity-induced rats [10]; colchicine 10 μg/kg alone, Table 5): 345.28 ± 8.14 μg/g of liver
- Hydroxyproline (obesity-induced rats [10]; colchicine 50 μg/kg alone, Table 5): 326.46 ± 14.55 μg/g of liver
- Hydroxyproline (obesity-induced rats [10]; colchicine 100 μg/kg alone, Table 5): 308.13 ± 5.04 μg/g of liver
- Hydroxyproline (obesity-induced rats [10]; colchicine 100 μg/kg alone, Table 6): 316.68 ± 13.36 μg/g of liver
